Test results: patent US20230058171A1, “NEW ORAL PHARMACEUTICAL COMPOSITION FOR CANCER THERAPY” (BOEHRINGER INGELHEIM INTERNATIONAL GMBH, priority 2021, published 2023)

Test system: patients with advanced or metastatic solid tumors
Test: Trial 1403-0001 Phase Ia dose escalation, Arm B (D1 D8 q4w): adverse events
Type: in vivo
Details: for AEs leading to Discontinuation: Dose limiting toxicity, % / AEs leading to Discontinuation: Other adverse event, % / Patients with Dose limiting toxicity, % / Serious AEs: Cogenital Anomaly or Birth Defect, % / Serious AEs: Is Life Threatening, % / Serious AEs: Other Medically Important Serious Event, % / Serious AEs: Persists of Signif. Disability/Incapacity, % / Serious AEs: Requires or Prolongs Hospitalization, % / Serious AEs: Results in Death, % / Subjects with AEs leading to Discontinuation of trial drug, % / Subjects with AEs leading to dose reduction of trial drug, % / Subjects with any AE, % / Subjects with investigator defined drug-related AEs, % / Subjects with maximum CTC Grade 1, % / Subjects with maximum CTC Grade 2, % / Subjects with maximum CTC Grade 3, % / Subjects with maximum CTC Grade 4, % / Subjects with maximum CTC Grade 5, % / Subjects with serious AEs, %: Arm B D1 D8 q4w
Experimental: The Phase Ia dose escalation part aimed to define the Maximum Tolerated Dose (MTD) and the Recommended Dose for Expansion (RDE) for the MDM2-antagonist of formula I based on safety and tolerability, pharmacokinetics, pharmacodynamics, and preliminary efficacy. The RDE will be further explored in the Phase Ib expansion part of the trial.
Dose levels evaluated in Arm A were 10, 20, 30, 45, 50, 60, and 80 mg. Dose levels evaluated in Arm B (referring to the dose administered on Day 1 and Day 8) were 5, 10, 15, 20, 30, 45, and 60 mg.

Cc1c(C(=O)O)ccc2c3n(nc12)[C@@H]1[C@H](C3)N(CC2CC2)[C@@]2(C(=O)Nc3cc(Cl)ccc32)[C@H]1c1cccc(Cl)c1F [MDM2-antagonist of formula I, (2′S,3′S,3a'S,10a'S)-6-chloro-3′-(3-chloro-2-fluorophenyl)-1′-(cyclopropylmethyl)-6′-methyl-2-oxo-1,2,3′,3a′,10′,10a′-hexahydro-1′H-spiro[indole-3,2′-pyrrolo[2′,3′:4,5]pyrrolo[1,2-b]indazole]-7′-carboxylic acid]
AEs leading to Discontinuation: Dose limiting toxicity, % (5 mg): 0%
AEs leading to Discontinuation: Other adverse event, % (5 mg): 0%
Patients with Dose limiting toxicity, % (5 mg): 0%
Serious AEs: Cogenital Anomaly or Birth Defect, % (5 mg): 0%
Serious AEs: Is Life Threatening, % (5 mg): 0%
Serious AEs: Other Medically Important Serious Event, % (5 mg): 0%
Serious AEs: Persists of Signif. Disability/Incapacity, % (5 mg): 0%
Serious AEs: Requires or Prolongs Hospitalization, % (5 mg): 0%
Serious AEs: Results in Death, % (5 mg): 0%
Subjects with AEs leading to Discontinuation of trial drug, % (5 mg): 0%
Subjects with AEs leading to dose reduction of trial drug, % (5 mg): 0%
Subjects with any AE, % (5 mg): 100%
Subjects with investigator defined drug-related AEs, % (5 mg): 33.3%
Subjects with maximum CTC Grade 1, % (5 mg): 66.7%
Subjects with maximum CTC Grade 2, % (5 mg): 33.3%
Subjects with maximum CTC Grade 3, % (5 mg): 0%
Subjects with maximum CTC Grade 4, % (5 mg): 0%
Subjects with maximum CTC Grade 5, % (5 mg): 0%
Subjects with serious AEs, % (5 mg): 0%
AEs leading to Discontinuation: Dose limiting toxicity, % (10 mg): 0%
AEs leading to Discontinuation: Other adverse event, % (10 mg): 0%
Patients with Dose limiting toxicity, % (10 mg): 0%
Serious AEs: Cogenital Anomaly or Birth Defect, % (10 mg): 0%
Serious AEs: Is Life Threatening, % (10 mg): 0%
Serious AEs: Other Medically Important Serious Event, % (10 mg): 0%
Serious AEs: Persists of Signif. Disability/Incapacity, % (10 mg): 0%
Serious AEs: Requires or Prolongs Hospitalization, % (10 mg): 33.3%
Serious AEs: Results in Death, % (10 mg): 0%
Subjects with AEs leading to Discontinuation of trial drug, % (10 mg): 0%
Subjects with AEs leading to dose reduction of trial drug, % (10 mg): 33.3%
Subjects with any AE, % (10 mg): 100%
Subjects with investigator defined drug-related AEs, % (10 mg): 100%
Subjects with maximum CTC Grade 1, % (10 mg): 0%
Subjects with maximum CTC Grade 2, % (10 mg): 33.3%
Subjects with maximum CTC Grade 3, % (10 mg): 66.7%
Subjects with maximum CTC Grade 4, % (10 mg): 0%
Subjects with maximum CTC Grade 5, % (10 mg): 0%
Subjects with serious AEs, % (10 mg): 33.3%
AEs leading to Discontinuation: Dose limiting toxicity, % (15 mg): 0%
AEs leading to Discontinuation: Other adverse event, % (15 mg): 0%
Patients with Dose limiting toxicity, % (15 mg): 0%
Serious AEs: Cogenital Anomaly or Birth Defect, % (15 mg): 0%
Serious AEs: Is Life Threatening, % (15 mg): 0%
Serious AEs: Other Medically Important Serious Event, % (15 mg): 0%
Serious AEs: Persists of Signif. Disability/Incapacity, % (15 mg): 0%
Serious AEs: Requires or Prolongs Hospitalization, % (15 mg): 33.3%
Serious AEs: Results in Death, % (15 mg): 0%
Subjects with AEs leading to Discontinuation of trial drug, % (15 mg): 0%
Subjects with AEs leading to dose reduction of trial drug, % (15 mg): 0%
Subjects with any AE, % (15 mg): 100%
Subjects with investigator defined drug-related AEs, % (15 mg): 100%
Subjects with maximum CTC Grade 1, % (15 mg): 33.3%
Subjects with maximum CTC Grade 2, % (15 mg): 66.7%
Subjects with maximum CTC Grade 3, % (15 mg): 0%
Subjects with maximum CTC Grade 4, % (15 mg): 0%
Subjects with maximum CTC Grade 5, % (15 mg): 0%
Subjects with serious AEs, % (15 mg): 33.3%
AEs leading to Discontinuation: Dose limiting toxicity, % (20 mg): 0%
AEs leading to Discontinuation: Other adverse event, % (20 mg): 0%
Patients with Dose limiting toxicity, % (20 mg): 0%
Serious AEs: Cogenital Anomaly or Birth Defect, % (20 mg): 0%
Serious AEs: Is Life Threatening, % (20 mg): 0%
Serious AEs: Other Medically Important Serious Event, % (20 mg): 33.3%
Serious AEs: Persists of Signif. Disability/Incapacity, % (20 mg): 0%
Serious AEs: Requires or Prolongs Hospitalization, % (20 mg): 33.3%
Serious AEs: Results in Death, % (20 mg): 0%
Subjects with AEs leading to Discontinuation of trial drug, % (20 mg): 0%
Subjects with AEs leading to dose reduction of trial drug, % (20 mg): 0%
Subjects with any AE, % (20 mg): 100%
Subjects with investigator defined drug-related AEs, % (20 mg): 100%
Subjects with maximum CTC Grade 1, % (20 mg): 0%
Subjects with maximum CTC Grade 2, % (20 mg): 66.7%
Subjects with maximum CTC Grade 3, % (20 mg): 33.3%
Subjects with maximum CTC Grade 4, % (20 mg): 0%
Subjects with maximum CTC Grade 5, % (20 mg): 0%
Subjects with serious AEs, % (20 mg): 33.3%
AEs leading to Discontinuation: Dose limiting toxicity, % (30 mg): 0%
AEs leading to Discontinuation: Other adverse event, % (30 mg): 0%
Patients with Dose limiting toxicity, % (30 mg): 0%
Serious AEs: Cogenital Anomaly or Birth Defect, % (30 mg): 0%
Serious AEs: Is Life Threatening, % (30 mg): 0%
Serious AEs: Other Medically Important Serious Event, % (30 mg): 25.0%
Serious AEs: Persists of Signif. Disability/Incapacity, % (30 mg): 0%
Serious AEs: Requires or Prolongs Hospitalization, % (30 mg): 0%
Serious AEs: Results in Death, % (30 mg): 0%
Subjects with AEs leading to Discontinuation of trial drug, % (30 mg): 0%
Subjects with AEs leading to dose reduction of trial drug, % (30 mg): 50%
Subjects with any AE, % (30 mg): 100%
Subjects with investigator defined drug-related AEs, % (30 mg): 100%
Subjects with maximum CTC Grade 1, % (30 mg): 50.0%
Subjects with maximum CTC Grade 2, % (30 mg): 25.0%
Subjects with maximum CTC Grade 3, % (30 mg): 0%
Subjects with maximum CTC Grade 4, % (30 mg): 25.0%
Subjects with maximum CTC Grade 5, % (30 mg): 0%
Subjects with serious AEs, % (30 mg): 25.0%
AEs leading to Discontinuation: Dose limiting toxicity, % (45 mg): 0%
AEs leading to Discontinuation: Other adverse event, % (45 mg): 16.7%
Patients with Dose limiting toxicity, % (45 mg): 16.7%
Serious AEs: Cogenital Anomaly or Birth Defect, % (45 mg): 0%
Serious AEs: Is Life Threatening, % (45 mg): 0%
Serious AEs: Other Medically Important Serious Event, % (45 mg): 16.7%
Serious AEs: Persists of Signif. Disability/Incapacity, % (45 mg): 16.7%
Serious AEs: Requires or Prolongs Hospitalization, % (45 mg): 33.3%
Serious AEs: Results in Death, % (45 mg): 0%
Subjects with AEs leading to Discontinuation of trial drug, % (45 mg): 16.7%
Subjects with AEs leading to dose reduction of trial drug, % (45 mg): 16.7%
Subjects with any AE, % (45 mg): 100%
Subjects with investigator defined drug-related AEs, % (45 mg): 100%
Subjects with maximum CTC Grade 1, % (45 mg): 0%
Subjects with maximum CTC Grade 2, % (45 mg): 33.3%
Subjects with maximum CTC Grade 3, % (45 mg): 50.0%
Subjects with maximum CTC Grade 4, % (45 mg): 16.7%
Subjects with maximum CTC Grade 5, % (45 mg): 0%
Subjects with serious AEs, % (45 mg): 50.0%
AEs leading to Discontinuation: Dose limiting toxicity, % (60 mg): 0%
AEs leading to Discontinuation: Other adverse event, % (60 mg): 0%
Patients with Dose limiting toxicity, % (60 mg): 66.7%
Serious AEs: Cogenital Anomaly or Birth Defect, % (60 mg): 0%
Serious AEs: Is Life Threatening, % (60 mg): 0%
Serious AEs: Other Medically Important Serious Event, % (60 mg): 0%
Serious AEs: Persists of Signif. Disability/Incapacity, % (60 mg): 0%
Serious AEs: Requires or Prolongs Hospitalization, % (60 mg): 66.7%
Serious AEs: Results in Death, % (60 mg): 0%
Subjects with AEs leading to Discontinuation of trial drug, % (60 mg): 0%
Subjects with AEs leading to dose reduction of trial drug, % (60 mg): 66.7%
Subjects with any AE, % (60 mg): 100%
Subjects with investigator defined drug-related AEs, % (60 mg): 100%
Subjects with maximum CTC Grade 1, % (60 mg): 0%
Subjects with maximum CTC Grade 2, % (60 mg): 0%
Subjects with maximum CTC Grade 3, % (60 mg): 33.3%
Subjects with maximum CTC Grade 4, % (60 mg): 66.7%
Subjects with maximum CTC Grade 5, % (60 mg): 0%
Subjects with serious AEs, % (60 mg): 66.7%
AEs leading to Discontinuation: Dose limiting toxicity, % (Total): 0%
AEs leading to Discontinuation: Other adverse event, % (Total): 4.0%
Patients with Dose limiting toxicity, % (Total): 12.0%
Serious AEs: Cogenital Anomaly or Birth Defect, % (Total): 0%
Serious AEs: Is Life Threatening, % (Total): 0%
Serious AEs: Other Medically Important Serious Event, % (Total): 12.0%
Serious AEs: Persists of Signif. Disability/Incapacity, % (Total): 4.0%
Serious AEs: Requires or Prolongs Hospitalization, % (Total): 28.0%
Serious AEs: Results in Death, % (Total): 0%
Subjects with AEs leading to Discontinuation of trial drug, % (Total): 4.0%
Subjects with AEs leading to dose reduction of trial drug, % (Total): 24%
Subjects with any AE, % (Total): 100%
Subjects with investigator defined drug-related AEs, % (Total): 92.0%
Subjects with maximum CTC Grade 1, % (Total): 20.0%
Subjects with maximum CTC Grade 2, % (Total): 36.0%
Subjects with maximum CTC Grade 3, % (Total): 28.0%
Subjects with maximum CTC Grade 4, % (Total): 16.0%
Subjects with maximum CTC Grade 5, % (Total): 0%
Subjects with serious AEs, % (Total): 36.0%
Subjects with AEs leading to dose reduction of trial drug, % (Total, listed as Comp. I): 24.0%
AE alopecia, patients (Arm B, all 25 patients): 24.0%
AE decreased appetite, patients (Arm B, all 25 patients): 40.0%
AE diarrhea, patients (Arm B, all 25 patients): 44.0%
AE fatigue, patients (Arm B, all 25 patients): 52.0%
AE nausea, patients (Arm B, all 25 patients): 92.0%
AE platelet count decreased, patients (Arm B, all 25 patients): 28.0%
AE vomiting, patients (Arm B, all 25 patients): 64.0%
Grade 3 AE anemia, patients (Arm B, all 25 patients): 8.0%
Grade 3 AE platelet count decreased, patients (Arm B, all 25 patients): 8.0%
Grade 4 AE neutrophil count decreased, patients (Arm B, all 25 patients): 8.0%
Grade 4 AE platelet count decreased, patients (Arm B, all 25 patients): 8.0%
SAE platelet count decreased, patients (Arm B, all 25 patients): 8.0%
dose reduction due to diarrhea, patients (Arm B, all 25 patients): 4.0%
dose reduction due to neutropenia and/or thrombocytopenia, patients (Arm B, all 25 patients): 20.0%
drug-related AE alopecia, patients (Arm B, all 25 patients): 24.0%
drug-related AE decreased appetite, patients (Arm B, all 25 patients): 28.0%
drug-related AE diarrhea, patients (Arm B, all 25 patients): 32.0%
drug-related AE fatigue, patients (Arm B, all 25 patients): 40.0%
drug-related AE nausea, patients (Arm B, all 25 patients): 76.0%
drug-related AE platelet count decreased, patients (Arm B, all 25 patients): 28.0%
drug-related AE vomiting, patients (Arm B, all 25 patients): 60.0%
fatal AEs (Arm B, all 25 patients): No fatal AEs were reported
